Source: PubChem BioAssay (NCI)
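Where inhibition never reached the appropriate level, the endpoint shown equals the highest concentration tested. Otherwise, values were interpolated linearly from a five-concentration, 48-hour dose response in 96-well plates. At the GI50, growth is halved. At the TGI there is no net growth.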

Assays:
Test in all cases: DTP human tumour cell line panel, 48 h
[1] = system: RPMI-8226 leukemia
[2] = system: SK-OV-3 ovarian
[3] = system: MDA-MB-435
[4] = system: HS 578T breast
[5] = system: MCF7 breast
[6] = system: PC-3 prostate
[7] = system: SR leukemia
[8] = system: LOX IMVI melanoma
[9] = system: BT-549 breast
[10] = system: A549 NSCLC
[11] = system: SK-MEL-5 melanoma
[12] = system: HL-60(TB) leukemia
[13] = system: HCC-2998 colon
[14] = system: SK-MEL-2 melanoma
[15] = system: UACC-257 melanoma
[16] = system: OVCAR-5 ovarian
[17] = system: SF-295 CNS
[18] = system: NCI-H460 lung
[19] = system: NCI-H23 lung
[20] = system: IGROV1 ovarian
[21] = system: T-47D breast
[22] = system: HCT-15 colon
[23] = system: KM12 colon
[24] = system: TK-10 renal
[25] = system: HCT-116 colon
[26] = system: SW-620 colon
[27] = system: MOLT-4 leukemia
[28] = system: A498 renal
[29] = system: SNB-19 CNS
[30] = system: 786-0 renal
[31] = system: K-562 leukemia
[32] = system: OVCAR-8 ovarian
[33] = system: COLO 205 colon
[34] = system: M14 melanoma
[35] = system: NCI-H226 lung
[36] = system: NCI-H522 lung
[37] = system: SK-MEL-28 melanoma
[38] = system: SNB-75 CNS
[39] = system: CAKI-1 renal
[40] = system: SF-268 CNS
[41] = system: SF-539 CNS
[42] = system: HT29 colon
[43] = system: EKVX NSCLC
[44] = system: UO-31 renal
[45] = system: CCRF-CEM leukemia
[46] = system: UACC-62 melanoma
[47] = system: HOP-92 NSCLC
[48] = system: ACHN renal
[49] = system: OVCAR-3 ovarian
[50] = system: NCI/ADR-RES ovarian
[51] = system: MALME-3M melanoma
[52] = system: DU-145 prostate
[53] = system: MDA-MB-231 breast
[54] = system: OVCAR-4 ovarian
[55] = system: U251 CNS
[56] = system: RXF 393 renal
[57] = system: HOP-62 NSCLC
[58] = system: SN12C renal

## Cc1cnc(C(=O)NNc2nc3sc4c(c3c(=O)n2C)C(C)CCC4)cn1 (centres undefined)
[1]
  GI50: 357 nM
  TGI: > 20000 nM
[2]
  GI50: 628 nM
  TGI: 5010 nM
[3]
  GI50: 751 nM
  TGI: 7260 nM
[4]
  GI50: 1560 nM
  TGI: 17100 nM
[5]
  GI50: 290 nM
  TGI: 1700 nM
[6]
  GI50: 465 nM
  TGI: 11200 nM
[7]
  GI50: 237 nM
  TGI: > 100000 nM
[8]
  GI50: 304 nM
  TGI: 1750 nM
[9]
  GI50: 1030 nM
  TGI: 14000 nM
[10]
  GI50: 371 nM
  TGI: 4690 nM
[11]
  GI50: 363 nM
  TGI: 1720 nM
[12]
  GI50: 269 nM
  TGI: 765 nM
[13]
  GI50: 529 nM
  TGI: 6220 nM
[14]
  GI50: 1020 nM
  TGI: 8880 nM
[15]
  GI50: 353 nM
  TGI: 4340 nM
[16]
  GI50: 491 nM
  TGI: 7400 nM
[17]
  GI50: 384 nM
  TGI: 3910 nM
[18]
  GI50: 194 nM
  TGI: 2020 nM
[19]
  GI50: 719 nM
  TGI: 10300 nM
[20]
  GI50: 292 nM
  TGI: 2800 nM
[21]
  GI50: 416 nM
  TGI: 5680 nM
[22]
  GI50: 268 nM
  TGI: 11800 nM
[23]
  GI50: 362 nM
  TGI: 2160 nM
[24]
  GI50: 608 nM
  TGI: 11900 nM
[25]
  GI50: 260 nM
  TGI: 7060 nM
[26]
  GI50: 408 nM
  TGI: 6660 nM
[27]
  GI50: 346 nM
[28]
  GI50: 1890 nM
  TGI: 7800 nM
[29]
  GI50: 425 nM
  TGI: 5450 nM
[30]
  GI50: 511 nM
  TGI: 5520 nM
[31]
  GI50: 433 nM
  TGI: > 100000 nM
[32]
  GI50: 366 nM
  TGI: 11900 nM
[33]
  GI50: 296 nM
  TGI: 1330 nM
[34]
  GI50: 284 nM
  TGI: 2430 nM
[35]
  GI50: 404 nM
  TGI: 3030 nM
[36]
  GI50: 328 nM
  TGI: 4620 nM
[37]
  GI50: 537 nM
  TGI: 4600 nM
[38]
  GI50: 560 nM
  TGI: 5780 nM
[39]
  GI50: 333 nM
  TGI: 2490 nM
[40]
  GI50: 280 nM
  TGI: 6650 nM
[41]
  GI50: 396 nM
  TGI: 2380 nM
[42]
  GI50: 788 nM
  TGI: 6190 nM
[43]
  GI50: 292 nM
  TGI: 9130 nM
[44]
  GI50: 322 nM
  TGI: 1860 nM
[45]
  GI50: 245 nM
[46]
  GI50: 346 nM
  TGI: 2240 nM
[47]
  GI50: 724 nM
  TGI: 4570 nM
[48]
  GI50: 308 nM
  TGI: 2020 nM
[49]
  GI50: 259 nM
  TGI: 1800 nM
[50]
  GI50: 392 nM
  TGI: 10800 nM
[51]
  GI50: 544 nM
  TGI: 3290 nM
[52]
  GI50: 458 nM
  TGI: 4150 nM
[53]
  GI50: 335 nM
  TGI: 4040 nM
[54]
  GI50: 163 nM
  TGI: 2090 nM
[55]
  GI50: 228 nM
  TGI: 2320 nM
[56]
  GI50: 926 nM
  TGI: 3600 nM
[57]
  GI50: 304 nM
  TGI: 5650 nM
[58]
  GI50: 510 nM
  TGI: 4550 nM
